What was measured:
[1] = biological target: α5β3γ2 GABAA receptors (Homo sapiens, UniProt P18507+P31644); experiment: [3H]Ro15-1788 binding, membranes of Ltk cells stably expressing α5β3γ2 GABAA receptors; conditions: ranges; inhibition of [3H]Ro15-1788 binding
[2] = biological target: T1, GABAA receptors (α5β2γ2) (Homo sapiens, UniProt P18507+P31644); experiment: Positive allosteric modulator activity: potentiation of EC20 GABA current in oocytes; format: cell-based; conditions: read-out: GABA α5 Functional Data (potentiation of EC20 GABA); @ 100 nM; ranges
T1 construct: expressed in transfected cells
T1 sequence (P31644 32-462): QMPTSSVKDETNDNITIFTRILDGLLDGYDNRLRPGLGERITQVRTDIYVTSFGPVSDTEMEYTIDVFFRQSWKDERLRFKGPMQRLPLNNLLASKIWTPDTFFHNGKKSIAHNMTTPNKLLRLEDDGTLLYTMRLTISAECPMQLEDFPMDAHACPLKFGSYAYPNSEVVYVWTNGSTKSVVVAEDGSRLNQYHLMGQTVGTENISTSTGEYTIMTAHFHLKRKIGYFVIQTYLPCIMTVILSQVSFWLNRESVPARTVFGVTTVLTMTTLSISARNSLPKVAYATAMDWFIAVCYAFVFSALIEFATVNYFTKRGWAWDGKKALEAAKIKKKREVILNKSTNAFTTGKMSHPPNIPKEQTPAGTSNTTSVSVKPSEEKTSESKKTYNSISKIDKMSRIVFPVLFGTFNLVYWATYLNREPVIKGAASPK
T1 sequence (P47870 25-512, further chain): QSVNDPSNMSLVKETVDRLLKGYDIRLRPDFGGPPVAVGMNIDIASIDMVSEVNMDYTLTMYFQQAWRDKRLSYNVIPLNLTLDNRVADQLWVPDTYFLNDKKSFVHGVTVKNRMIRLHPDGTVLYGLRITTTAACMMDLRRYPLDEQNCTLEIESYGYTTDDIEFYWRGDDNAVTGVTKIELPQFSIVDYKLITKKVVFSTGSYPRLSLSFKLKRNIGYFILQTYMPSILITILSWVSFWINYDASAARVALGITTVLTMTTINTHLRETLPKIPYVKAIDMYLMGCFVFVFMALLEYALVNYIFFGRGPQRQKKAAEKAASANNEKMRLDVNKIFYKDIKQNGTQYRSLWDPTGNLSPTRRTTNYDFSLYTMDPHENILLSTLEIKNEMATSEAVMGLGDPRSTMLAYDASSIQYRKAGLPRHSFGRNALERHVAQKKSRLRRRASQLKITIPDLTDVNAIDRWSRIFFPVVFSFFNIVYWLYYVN
T1 sequence (P18507 40-475): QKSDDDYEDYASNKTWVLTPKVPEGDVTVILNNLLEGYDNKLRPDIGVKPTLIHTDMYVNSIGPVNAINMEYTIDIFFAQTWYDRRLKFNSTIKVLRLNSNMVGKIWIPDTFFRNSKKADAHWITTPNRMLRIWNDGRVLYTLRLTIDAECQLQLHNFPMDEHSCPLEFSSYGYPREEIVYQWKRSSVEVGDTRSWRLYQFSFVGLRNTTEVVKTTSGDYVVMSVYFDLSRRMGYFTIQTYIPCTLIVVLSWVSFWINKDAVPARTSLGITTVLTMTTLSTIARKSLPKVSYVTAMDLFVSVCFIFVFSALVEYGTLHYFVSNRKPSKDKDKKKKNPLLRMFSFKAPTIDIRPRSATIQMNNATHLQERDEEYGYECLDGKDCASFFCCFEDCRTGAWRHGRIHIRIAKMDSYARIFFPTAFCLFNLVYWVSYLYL
Description: On day 1, 1 ng/32 nL of GABAA α5β2γ2 cDNA was injected into one oocyte. Test starts on day 2. The cDNA injected to the oocytes was a mix of alpha, beta and gamma, their ratio is 1:1:10 (by weight) and the total weight of the mixed 3 subunits to be injected in one oocyte was 1 ng in 32 nl volume. The injected oocytes can also be tested on day 3. In such case, the cDNA amount injected to the oocytes should be reduced by 20%.
1). 8 oocytes were placed in 8 chambers of OpusXpress and superfused with Modified Barth's Saline (MBS) at 3 mL/min. Glass electrodes back-filled with 3M KCl (0.5-3 megaohms) were used.
1). New oocytes were used to run new test.
3). […] Oocytes were washed with MBS for 5-10 min.
4). […] Itest was divided by IGABA to obtain potentiation (%).
Test Compounds at Multiple Doses • 1). Repeat the above steps 1), 2) and 3) in the control test. • 2). […] Divide Itest by IGABA to obtain potentiation (%). • 3). Discard all tested oocytes, new oocytes were used and the above steps 1) and 2) were repeated to test second concentration of the same compound. Each oocyte was used for only one concentration test for a single test compound. The steps were repeated for other test compounds.

[3] = biological target: T2, GABAAα5 receptor (Rattus norvegicus, UniProt P18508+P19969); experiment: in vivo; format: in vivo, Long Evans rats; conditions: i.v.
T2 construct: occupancy in the hippocampus (a region of high GABAAα5 receptor density); from tissue; host or cells: rat brain in vivo: hippocampus versus cerebellum
T2 sequence (P19969 32-464): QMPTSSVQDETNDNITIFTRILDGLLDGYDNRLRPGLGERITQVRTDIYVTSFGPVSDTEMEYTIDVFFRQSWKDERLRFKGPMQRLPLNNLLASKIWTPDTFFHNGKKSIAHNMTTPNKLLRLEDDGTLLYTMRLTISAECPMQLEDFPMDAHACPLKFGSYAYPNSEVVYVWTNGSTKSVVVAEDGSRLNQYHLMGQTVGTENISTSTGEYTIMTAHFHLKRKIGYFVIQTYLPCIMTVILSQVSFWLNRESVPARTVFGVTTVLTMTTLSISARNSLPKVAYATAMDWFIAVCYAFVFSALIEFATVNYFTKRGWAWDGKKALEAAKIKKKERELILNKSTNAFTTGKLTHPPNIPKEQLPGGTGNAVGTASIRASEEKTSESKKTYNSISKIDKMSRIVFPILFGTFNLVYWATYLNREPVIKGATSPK
T2 sequence (P18508 39-466): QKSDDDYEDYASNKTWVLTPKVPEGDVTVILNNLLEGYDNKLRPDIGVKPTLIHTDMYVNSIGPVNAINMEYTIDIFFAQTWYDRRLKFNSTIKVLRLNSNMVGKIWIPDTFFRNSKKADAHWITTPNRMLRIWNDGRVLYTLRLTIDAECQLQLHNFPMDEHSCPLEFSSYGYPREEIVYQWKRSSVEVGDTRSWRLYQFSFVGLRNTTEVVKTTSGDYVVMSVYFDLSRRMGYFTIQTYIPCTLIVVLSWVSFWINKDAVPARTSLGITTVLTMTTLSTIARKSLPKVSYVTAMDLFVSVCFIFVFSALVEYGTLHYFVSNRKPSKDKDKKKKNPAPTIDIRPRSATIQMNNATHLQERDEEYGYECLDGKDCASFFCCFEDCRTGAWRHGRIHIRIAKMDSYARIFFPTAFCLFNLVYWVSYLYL
From the text: Food and water were available ad libitum.

α5β3γ2 GABAA receptors, sequence (P31644 32-462): as the sequence (P31644 32-462) above
α5β3γ2 GABAA receptors, sequence (P28472 26-473 partner): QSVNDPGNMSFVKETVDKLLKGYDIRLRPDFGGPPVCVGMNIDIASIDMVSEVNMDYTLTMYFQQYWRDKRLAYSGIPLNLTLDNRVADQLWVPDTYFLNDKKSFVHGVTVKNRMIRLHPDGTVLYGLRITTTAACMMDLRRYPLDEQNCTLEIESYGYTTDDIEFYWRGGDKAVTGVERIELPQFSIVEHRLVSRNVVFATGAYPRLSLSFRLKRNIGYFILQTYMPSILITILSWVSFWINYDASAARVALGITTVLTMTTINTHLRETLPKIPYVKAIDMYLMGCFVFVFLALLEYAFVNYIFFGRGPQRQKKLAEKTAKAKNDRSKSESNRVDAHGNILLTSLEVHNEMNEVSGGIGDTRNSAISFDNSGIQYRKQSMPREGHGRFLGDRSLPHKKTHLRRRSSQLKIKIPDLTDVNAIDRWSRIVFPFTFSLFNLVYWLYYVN
α5β3γ2 GABAA receptors, sequence (P18507 40-475): as the sequence (P18507 40-475) above

Molecule	Ki [1] [nM]	activation at 0.1 µM [2] [%]	other results
COCc1nnc2n1Cc1c(C#Cc3ncc(C)s3)ncn1-c1ccc(Cl)cc1-2 [Compound 607]	< 100	20 to 50	–
COCc1nnc2n1Cc1c(C#Cc3cnc(C)s3)ncn1-c1ccc(Cl)cc1-2 [Compound 608]	< 100	20 to 50	–
COCc1nnc2n1Cc1c(C#Cc3cc(C)cnn3)ncn1-c1ccc(Cl)cc1-2 [Compound 609]	100 to 1000	20 to 50	–
COCc1nnc2n1Cc1c(C#Cc3cccnc3OC)ncn1-c1ccc(OC)cc1-2 [Compound 615]	< 100	20 to 50	–
COc1ccc(C#Cc2ncn3c2Cn2c(COC(F)F)nnc2-c2cc(Cl)ccc2-3)cn1 [Compound 616]	< 100	5 to 20	–
COc1ccc2c(c1)-n1nncc1Cc1c(C#Cc3cncc(C)c3)ncn1-2 [Compound 617]	< 100	5 to 20	–
Cc1cncc(C#Cc2ncn3c2Cc2cnnn2-c2cc(Cl)ccc2-3)c1 [Compound 618]	< 100	20 to 50	–
COCc1nnc2n1Cc1c(C#Cc3cnc(OC)s3)ncn1-c1ccc(OC)cc1-2 [Compound 619]	< 100	5 to 20	–
C[C@]1(c2ccccc2)COC(c2ncn3c2Cc2cnnn2-c2cc(Cl)ccc2-3)=N1 [Compound 623]	< 100	5 to 20	–
FC(F)(F)c1ccc2c(c1)-n1nncc1Cc1c(C3=NC[C@@H](c4ccccc4)O3)ncn1-2 [Compound 624]	< 100	5 to 20	–
Clc1ccc2c(c1)-n1nncc1Cc1c(C3=NCC(c4ccccn4)O3)ncn1-2 (stereo not drawn) [Compound 627]	< 100	20 to 50	–
COc1ccc2c(c1)-n1nncc1Cc1c(C3=NCC(c4ccccn4)O3)ncn1-2 (stereo not drawn) [Compound 628]	< 100	20 to 50	–
COc1ccc2c(c1)-n1nncc1Cc1c(C3=NCC(c4ccncc4)O3)ncn1-2 (stereo not drawn) [Compound 630]	< 100	20 to 50	–
COc1cccc(C2CN=C(c3ncn4c3Cc3cnnn3-c3cc(Cl)ccc3-4)O2)n1 (stereo not drawn) [Compound 631]	< 100	5 to 20	–
COc1ccc2c(c1)-n1nncc1Cc1c(C3=NCC(c4ncccc4OC)O3)ncn1-2 (stereo not drawn) [Compound 632]	< 100	5 to 20	–
COCc1nnn2c1Cc1c(C#Cc3ccc(OC)nc3)ncn1-c1ccc(Cl)cc1-2 [Compound 633]	< 100	20 to 50	–
COCc1nnn2c1Cc1c(C3=NC[C@H](c4ccc(Cl)cc4)O3)ncn1-c1ccc(Cl)cc1-2 [Compound 635]	< 100	5 to 20	–
COCc1nnn2c1Cc1c(C3=NC[C@H](c4ccc(Cl)cc4)O3)ncn1-c1ccc(OC)cc1-2 [Compound 636]	< 100	5 to 20	–
COCc1nnn2c1Cc1c(C#Cc3ccc(OC)cn3)ncn1-c1ccc(Cl)cc1-2 [Compound 637]	< 100	20 to 50	–
CCc1cncc(C#Cc2ncn3c2Cc2c(COC)nnn2-c2cc(Cl)ccc2-3)c1 [Compound 638]	< 100	> 50	–
COCc1nnn2c1Cc1c(C#Cc3cncc(C)c3)ncn1-c1ccc(Cl)cc1-2 [Compound 639]	< 100	20 to 50	–
COCc1nnn2c1Cc1c(C#CC(C)(C)C)ncn1-c1ccc(Cl)cc1-2 [Compound 640]	< 100	20 to 50	–
COCc1nnn2c1Cc1c(C#Cc3ccc(OC)nc3)ncn1-c1ccc(OC)cc1-2 [Compound 641]	< 100	20 to 50	–
COCc1nnn2c1Cc1c(C#Cc3cnc(OC)s3)ncn1-c1ccc(Cl)cc1-2 [Compound 644]	< 100	20 to 50	–
COc1ccc2c(c1)-n1nncc1Cc1c(C#Cc3c[nH]nc3OC)ncn1-2 [Compound 663]	< 100	20 to 50	–
Cc1ncc(C#Cc2ncn3c2Cc2cnnn2-c2cc(Cl)ccc2-3)n1C [Compound 666]	< 100	20 to 50	–
COc1ccc2c(c1)-n1nncc1Cc1c(C#Cc3cnc(C)n3C)ncn1-2 [Compound 667]	< 100	> 50	–
COc1ccc2c(c1)-n1nncc1Cc1c(C#Cc3cnc(C)[nH]3)ncn1-2 [Compound 668]	< 100	> 50	–

Molecule	Ki [1] [nM]	activation at 0.1 µM [2] [%]	other results
COc1ccc2c(c1)-n1nncc1Cc1c(C#Cc3ccnn3C)ncn1-2 [Compound 669]	< 100	> 50	–
COc1ccc2c(c1)-n1nncc1Cc1c(C#Cc3ccn(C)n3)ncn1-2 [Compound 670]	< 100	> 50	–
COCc1nnc2n1Cc1c(C#Cc3cnc(C)n3C)ncn1-c1ccc(Cl)cc1-2 [Compound 671]	< 100	> 50	–
COCc1nnc2n1Cc1c(C#Cc3cnc(C)n3C)ncn1-c1ccc(OC)cc1-2 [Compound 672]	< 100	> 50	–
COCc1nnc2n1Cc1c(C#Cc3cnc4occc4c3)ncn1-c1ccc(OC)cc1-2 [Compound 674]	< 100	5 to 20	–
COCc1nnc2n1Cc1c(C#Cc3ccn4ccnc4c3)ncn1-c1ccc(OC)cc1-2 [Compound 675]	< 100	> 50	–
COCc1nnc2n1Cc1c(C#Cc3ccc(=O)n(C)c3)ncn1-c1ccc(OC)cc1-2 [Compound 676]	< 100	5 to 20	–
COCc1nnc2n1Cc1c(C#Cc3ccc(=O)n(C)c3)ncn1-c1ccc(Cl)cc1-2 [Compound 677]	< 100	5 to 20	–
COCc1nnc2n1Cc1c(C#Cc3ccc4nccn4c3)ncn1-c1ccc(Cl)cc1-2 [Compound 678]	< 100	20 to 50	–
COCc1nnc2n1Cc1c(C#Cc3ccn4ccnc4c3)ncn1-c1ccc(Cl)cc1-2 [Compound 679]	< 100	> 50	–
COCc1nnc2n1Cc1c(C#Cc3cnc4occc4c3)ncn1-c1ccc(Cl)cc1-2 [Compound 680]	< 100	20 to 50	–
COCc1nnc2n1Cc1c(C#Cc3cnc(C)[nH]3)ncn1-c1ccc(Cl)cc1-2 [Compound 681]	< 100	> 50	–
COCc1nnc2n1Cc1c(C#Cc3ccnn3C)ncn1-c1ccc(Cl)cc1-2 [Compound 682]	< 100	> 50	–
COCc1nnc2n1Cc1c(C#Cc3ccn(C)n3)ncn1-c1ccc(Cl)cc1-2 [Compound 683]	< 100	> 50	–
COCc1nnc2n1Cc1c(C#Cc3cnc(OC)c(C)c3)ncn1-c1ccc(Cl)cc1-2 [Compound 698]	< 100	5 to 20	–
FC(F)(F)c1ccc(C#Cc2ncn3c2Cc2cnnn2-c2cc(Cl)ccc2-3)nc1 [Compound 701]	< 100	5 to 20	–
COCc1nnc2n1Cc1c(C#Cc3ccc(OC)nc3)ncn1-c1ccc(OC)cc1-2 [Compound 703]	< 100	20 to 50	–
COCc1nnc2n1Cc1c(C#Cc3ccc(OC)nn3)ncn1-c1ccc(Cl)cc1-2 [Compound 707]	< 100	> 50	–
CCOc1ccc(C#Cc2ncn3c2Cn2c(COC)nnc2-c2cc(OC)ccc2-3)cn1 [Compound 710]	< 100	5 to 20	–
COCc1nnc2n1Cc1c(C#Cc3ccc(OC(C)C)nc3)ncn1-c1ccc(OC)cc1-2 [Compound 711]	< 100	5 to 20	–
COCc1nnc2n1Cc1c(C#Cc3ccc(OC)nn3)ncn1-c1ccc(OC)cc1-2 [Compound 712]	< 100	> 50	–
COCc1nnc2n1Cc1c(C#Cc3ccc4[nH]ccc4c3)ncn1-c1ccc(OC)cc1-2 [Compound 715]	< 100	20 to 50	–
COCc1nnc2n1Cc1c(C#Cc3ccc(C(C)C)cc3)ncn1-c1ccc(OC)cc1-2 [Compound 716]	< 100	5 to 20	–
COCc1nnc2n1Cc1c(C3=NC[C@@H](c4ccc(Cl)cc4)O3)ncn1-c1ccc(Cl)cc1-2 [Compound 717]	< 100	> 50	–
COCc1nnc2n1Cc1c(C3=NC[C@H](c4ccc(Cl)cc4)O3)ncn1-c1ccc(Cl)cc1-2 [Compound 718]	< 100	20 to 50	–
CCOC(=O)c1ncn2c1Cn1c(C)nnc1-c1cc(OC)ccc1-2 [Ethyl 3-methoxy-7-methyl-9H-benzo[f]imidazo[1,5-a][1,2,4]tri]	–	–	effect on binding of Ro 15-4513 in hippocampus ([3]; 0.01-10 mg/kg): blocked the binding of Ro154513 in the hippocampus; effect on binding/levels of Ro 15-4513 in cerebellum ([3]; 0.01-10 mg/kg): did not affect binding of Ro15413 in the cerebellum
Ro 15-4513	–	–	levels of Ro 15-4513 in cerebellum ([3]; tracer 1 μg/kg, after vehicle): 0.36 ± 0.02 ng/g; levels of Ro 15-4513 in hippocampus ([3]; tracer 1 μg/kg, after vehicle): 1.93 ± 0.05 ng/g; levels of Ro 15-4513 in hippocampus compared with cerebellum ([3]; tracer 1 μg/kg, after vehicle): > 5 fold

— US11414425B2 (priority 2018, dated 2022)
